In US7759349B2, “Control of parasites in animals by the use of imidazo[1,2-b]pyridazine derivatives” (Schering-Plough Animal Health Corporation, priority 2003, dated 2010):

The compounds below were run on Haemonchus contortus (assay: Haemonchus contortus larvacidal assay: NemaTOX H. contortus dose response (larval development, eggs to L3)). Settings: Haemonchus contortus, 144 h; Table 1; concentration required to inhibit development in 99% of the nematode larvae; eggs on agar to L3 stage (6 days); two-fold dilutions, 0.024 to 50 μg/ml; read-out: LD99.
Format: cell-based
Protocol: Haemonchus Contortus Larvacidal Assay: NemaTOX H.contortus Dose Response (00/0510)
Effect on larval development is determined in the assay described by Gill et al. (International Journal of Parasitology, 1995, 25, 463-470). Briefly, in this assay nematode eggs were applied to the surface of an agar matrix containing the test compound and then allowed to develop through to the L3, infective stage (6 days)
The wells for each dilution of every compound (from highest to lowest concentration) were inspected to determine the well number corresponding to the lowest concentration at which development was inhibited in 99% of the nematode larvae present. As the well numbers correspond to a two-fold serial dilution of each compound, a titre (dilution factor) is generated as 2^n-1, where n is the well number. By dividing the highest concentration tested by the titre an LD99 value can be obtained, representing the concentration required to inhibit development in 99% of the nematode larvae present.
The compounds supplied as solid and viscous liquids were dissolved in DMSO. Twelve serial 1/2 dilutions in DMSO solution were prepared from the stock solution, each of which was then diluted 1/5 with water. Aliquots (10 μl) of each dilution were transferred to the bioassay plates to give a final concentration range of 0.024 to 50 μg/ml.
In Tables 1, 2 and 3 the Haemonchus contortus LD99 values for compounds in accordance with the present invention are listed, measured in micrograms/mL.

Point of comparison: `c1cc2c(cc1-c1cn3nc(OCC4CC4)ccc3n1)OCO2` [Compound 43, 2-(3,4-Methylendioxyphenyl)-6-cyclopropylmethoxyimidazo[1,2-b]pyridazine], IC99 0.117 µg/mL. Against it:
- Cc1c(-c2cccs2)nc2ccc(OCC3CC3)nn12 [Compound 44] — 3.2-fold higher, 0.375 µg/mL

Same assay, conditions: Table 1; concentration required to inhibit development in 99% of the nematode larvae; eggs on agar to L3 stage (6 days); two-fold dilutions, 0.024 to 50 μg/ml

Compound `COc1c(-c2ccccc2)nc2ccc(OCc3ccccc3)nn12` [Compound 23] has an LD99 greater than 15.0 micrograms/mL.
`COc1ccc(-c2nc3ccc(OCc4ccccc4)nn3c2OC)cc1` [Compound 17] gave an LD99 greater than 15.0 micrograms/mL.
Compound `COc1c(-c2ccc3cc(C)ccc3c2)nc2ccc(SC)nn12` [Compound 9] has an LD99 greater than 15.0 micrograms/mL.
In the case of `COc1c(-c2ccccc2)nc2ccc(Sc3ccccc3)nn12` [Compound 21], the LD99 is reported as greater than 15.0 micrograms/mL.

Point of comparison: `CCSc1ccc2nc(-c3ccccc3)c(OC)n2n1` [Compound 24], LD99 7.5 micrograms/mL. Against it:
- COc1ccc(-c2cn3nc(SC(C)C)ccc3n2)cc1 [Compound 52] — lower, 0.938 micrograms/mL
- CCOc1ccc(-c2cn3nc(SCc4ccc(Cl)cc4)ccc3n2)cc1 [Compound 42] — lower, 3 micrograms/mL
- CCOc1ccc(-c2cn3nc(SCC(C)C)ccc3n2)cc1 [Compound 49] — lower, 1.75 micrograms/mL
- CCCOc1ccc2nc(-c3ccc4c(c3)OCO4)cn2n1 [Compound 16] — lower, 0.23 micrograms/mL
- c1ccc(COc2ccc3nc(-c4ccccc4)cn3n2)cc1 [Compound 10] — lower, 5.5 micrograms/mL
- CCOc1ccc(-c2cn3nc(OC4CCCC4)ccc3n2)cc1 [Compound 31] — lower, 0.875 micrograms/mL
- CSc1ccc2nc(-c3ccccc3)cn2n1 [Compound 4] — lower, 2.75 micrograms/mL
- CCCSc1ccc2nc(-c3ccc(OC)c(OC)c3)cn2n1 [Compound 29] — lower, 1.9 micrograms/mL
- COc1ccc(-c2nc3ccc(-c4ccccc4)nn3c2C)cc1 [Compound 36] — lower, 0.8123 micrograms/mL
- CCOc1ccc(-c2cn3nc(OCC)ccc3n2)cc1 [Compound 60] — lower, 0.172 micrograms/mL
- CCCOc1ccc2nc(-c3ccc(OC)c(OC)c3)cn2n1 [Compound 26] — lower, 1.3 micrograms/mL
- COc1cccc(-c2nc3ccc(SC)nn3c2OC)c1 [Compound 15] — lower, 2.75 micrograms/mL
- CCCOc1nn2cc(-c3ccc(OCC)cc3)nc2cc1C [Compound 32] — lower, 0.188 micrograms/mL
- CCOc1ccc(-c2cn3nc(OC(C)C)ccc3n2)cc1 [Compound 51] — lower, 1.875 micrograms/mL
- CCCSc1ccc2nc(-c3cccc(OC)c3)cn2n1 [Compound 13] — lower, 0.63 micrograms/mL
- CCCSc1ccc2nc(-c3ccc(C)cc3)cn2n1 [Compound 7] — lower, 0.938 micrograms/mL
- CCCSc1ccc2nc(-c3ccc(OCC)cc3)cn2n1 [Compound 30] — lower, 0.38 micrograms/mL
- COc1ccc(-c2cn3nc(SCC(C)C)ccc3n2)cc1OC [Compound 57] — lower, 1.375 micrograms/mL
- c1ccc(Sc2ccc3nc(-c4ccccc4)cn3n2)cc1 [Compound 5] — lower, 1.625 micrograms/mL
- COc1ccc(CSc2ccc3nc(-c4cccs4)c(C)n3n2)cc1 [Compound 47] — the same, 7.5 micrograms/mL
- CCCCOc1ccc2nc(-c3ccc(OCCC)cc3)cn2n1 [Compound 53] — lower, 0.344 micrograms/mL
- CCCOc1ccc2nc(-c3ccc4c(c3)OCCO4)cn2n1 [Compound 61] — lower, 0.813 micrograms/mL
- CCCSc1ccc2nc(-c3ccc(OCC)cc3)c(Cl)n2n1 [Compound 48] — lower, 6 micrograms/mL
- CCCOc1ccc2nc(-c3cccc(OC)c3)cn2n1 [Compound 28] — lower, 0.23 micrograms/mL
- CCCOc1ccc2nc(-c3ccc(F)cc3F)cn2n1 [Compound 54] — lower, 0.219 micrograms/mL
- CCCOc1ccc2nc(-c3ccc(OC)cc3)c(C)n2n1 [Compound 37] — lower, 0.344 micrograms/mL
- CCCCCCSc1ccc2nc(-c3cccs3)c(C)n2n1 [Compound 46] — lower, 6.5 micrograms/mL
- CCCOc1ccc2nc(-c3ccc(OCC)cc3)c(Br)n2n1 [Compound 40] — lower, 0.344 micrograms/mL
- CCSc1ccc2nc(-c3ccc(C)cc3)cn2n1 [Compound 12] — lower, 1.25 micrograms/mL
- CCOc1ccc2nc(-c3ccc(C)cc3)cn2n1 [Compound 2] — lower, 0.875 micrograms/mL
- CSc1ccc2nc(-c3ccc4c(c3)OCO4)cn2n1 [Compound 6] — lower, 3.25 micrograms/mL
- CCOc1ccc(-c2cn3nc(-c4ccccc4)ccc3n2)cc1 [Compound 35] — higher, 10 micrograms/mL
- CCCOc1ccc2nc(-c3ccc(F)cc3)cn2n1 [Compound 55] — lower, 0.813 micrograms/mL

Same assay, conditions: Table 2; concentration required to inhibit development in 99% of the nematode larvae; eggs on agar to L3 stage (6 days); two-fold dilutions, 0.024 to 50 μg/ml

Point of comparison: `COCCOc1ccc(-c2cn3nc(OC(C)C)ccc3n2)cc1` [Compound 112], LD99 1.63 micrograms/mL. Against it:
- COCCOc1cccc(-c2nc3ccc(OCC4CC4)nn3c2C)c1 [Compound 95] — lower, 0.875 micrograms/mL
- CCOc1ccc2nc(-c3ccc(OCCOC)c(OC)c3)cn2n1 [Compound 118] — lower, 1.25 micrograms/mL
- CCCCSc1ccc2nc(-c3ccc(OCCOC)cc3)cn2n1 [Compound 99] — lower, 0.0938 micrograms/mL
- CCOc1ccc2nc(-c3ccc(OCCOC)cc3)cn2n1 [Compound 100] — lower, 0.406 micrograms/mL
- CCCOc1ccc2nc(-c3ccc(OCCOC)c(OC)c3)cn2n1 [Compound 66] — lower, 0.81 micrograms/mL
- CCCOc1nn2cc(-c3ccc(OCCO)cc3)nc2c2ccccc12 [Compound 120] — lower, 1.38 micrograms/mL
- CCCOc1ccc2nc(-c3ccc(OCCOCC)cc3)cn2n1 [Compound 116] — lower, 0.109 micrograms/mL
- COCCOc1ccc(-c2cn3nc(OC4CCCC4)ccc3n2)cc1 [Compound 73] — higher, 1.875 micrograms/mL
- CCCOc1ccc2nc(-c3ccc(OCCOC)cc3)c(Br)n2n1 [Compound 81] — lower, 0.0137 micrograms/mL
- COCCOc1ccc(-c2cn3nc(SCC(C)C)ccc3n2)cc1 [Compound 108] — lower, 0.313 micrograms/mL
- OCCOc1ccc(-c2cn3nc(OC4CCCC4)ccc3n2)cc1 [Compound 74] — higher, 7 micrograms/mL
- CCCOc1ccc2nc(-c3ccc(OCCOC)c(OC)c3)c(I)n2n1 [Compound 113] — higher, 5 micrograms/mL
- COCCOc1ccc(-c2cn3nc(N4CCCC4)ccc3n2)cc1 [Compound 70] — higher, 3.25 micrograms/mL
- CCCOc1ccc2nc(-c3ccc(OCCOC)cc3)c(C)n2n1 [Compound 84] — lower, 0.109 micrograms/mL
- COCCOc1ccc(-c2cn3nc(N4CCCCC4)ccc3n2)cc1 [Compound 67] — lower, 1.5 micrograms/mL
- COCCOc1cccc(-c2nc3ccc(SCC(C)C)nn3c2C)c1 [Compound 102] — higher, 12 micrograms/mL
- CCCOc1ccc2nc(-c3ccc(OCCOC)c(Br)c3)c(C)n2n1 [Compound 83] — lower, 0.375 micrograms/mL
- COCCOc1ccc(-c2nc3ccc(SCC(C)C)nn3c2CN(C)C)cc1 [Compound 114] — higher, 3.25 micrograms/mL
- CCSc1ccc2nc(-c3ccc(OCCOC)cc3)cn2n1 [Compound 101] — lower, 0.3123 micrograms/mL
- COCCOc1cccc(-c2nc3ccc(SC(C)C)nn3c2C)c1 [Compound 103] — higher, 7 micrograms/mL
- COCCOc1ccc(-c2cn3nc(OCCOC)ccc3n2)cc1 [Compound 64] — higher, 6 micrograms/mL
- CCCSc1ccc2nc(-c3ccc(OCCOC)c(OC)c3)cn2n1 [Compound 68] — lower, 0.44 micrograms/mL
- COCCOc1ccc(-c2cn3nc(SCC(C)C)ccc3n2)cc1OC [Compound 105] — lower, 0.406 micrograms/mL
- COCCOc1ccc(-c2cn3nc(OC(C)C)ccc3n2)cc1OC [Compound 107] — higher, 7 micrograms/mL
- CCCNc1ccc2nc(-c3ccc(OCCOC)cc3)cn2n1 [Compound 71] — lower, 0.688 micrograms/mL
- COCCOc1ccc(-c2cn3nc(OCc4ccccc4)ccc3n2)cc1 [Compound 92] — lower, 0.438 micrograms/mL
- COCCOc1ccc(-c2cn3nc(Br)ccc3n2)cc1 [Compound 90] — higher, 3 micrograms/mL
- COCCOc1cccc(-c2nc3ccc(OC(C)C)nn3c2C)c1 [Compound 104] — higher, 5 micrograms/mL
- COCCOc1cccc(-c2nc3ccc(Br)nn3c2C)c1 [Compound 93] — higher, 11 micrograms/mL
- CCCCOc1ccc2nc(-c3ccc(OCCOC)c(OC)c3)cn2n1 [Compound 106] — lower, 0.313 micrograms/mL
